Measurements taken from patent US9757462B2, “Combined pharmaceutical preparation” (Sapporo Medical University, priority 2010, dated 2017).

How the values were obtained:
PANC-1 = test: 14C-fucose binding to cells; conditions: 14C-fucose 0-200 nM, 4° C., 1 hr
Experimental: (§1) In a 12-well culture plate, 1×10^5 cells were seeded and cultured overnight, and ^14C-fucose (specific activity: 55 mCi/mmol) diluted with BSA-PBS at a concentration of 0-200 nM was added to the cells and cultured at 4° C. for 1 hr. The cells were washed with cold BSA-PBS, lysed by 1% Triton X100/PBS-0.25% trypsin, and the radioactivity of the ^14C-fucose bound to the cell membrane was measured (FIGS. 2 and 3).

AsPC-1 = test: 14C-fucose binding to cells
Experimental: as §1
In another experiment, in a 12-well culture plate, 2×10^5 cells were seeded and cultured overnight, 10 nmol of ^14C-fucose (specific activity: 55 mCi/mmol) were added to the cells either singly or together with 1 pmol of fucose, and cultured at 4° C. for 1, 3, or 24 hr. The cells under each condition were washed with cold BSA-PBS, lysed by 1% Triton X100/PBS-0.25% trypsin, and the radioactivity of the ^14C-fucose was measured (FIG. 4).

[1] = cited from earlier work
[2] = Hematologic/biochemical analyses and adverse effects during the treatment period; type: in vivo, mouse
Experimental: In the preparation of subcutaneous model, AsPC-1 cells (2×10^6 cells) were seeded on the back side of a mouse (4-6 weeks old). Bioluminescence was measured from 0 to 4 days after injection, and the mice were randomly divided into multiple groups before starting the treatment. In vivo optical imaging was performed using Xenogen-IVIS-cooled […] optical system (Xenogen-IVIS). Bound CDD (such as CDDP in fucosylated liposomes) or free CDDP was in a dose of 2 mg/kg for each administration. Injection was performed twice in the first week, then twice in the second and third weeks. All the mice used […], sacrificed on the next day of the final injection prior to the final measurement of bioluminescence.
Samples were collected from mouse orbital venous plexus. In the table, WBC represents white blood cell count, RBC represents red blood cell, count, Hb represents hemoglobin concentration, PLT represents Platelet count, AST represents aspartate aminotransferase concentration, […], Bil represents bilirubin concentration, BS represents blood glucose, Cr represents creatinine concentration.
In pancreatic cancer model mice (AsPC-1), effects of suppression of tumor growth by CDDP, CDDP-encapsulated liposomes (F0), and CDDP-encapsulated liposomes (F50) were compared (FIG. 20). […] Tumor volumes were measured at 4, 8, 11, 15, 18 and 22 days after the transplant.

AsPC-1 cells = test: Impact of excessive mannose on transfection efficiency of fucosylated liposomes (flow cytometry); type: cell-based; conditions: excessive amount of mannose
Experimental: Mannose is phosphorylated to mannose-6-phosphate by hexokinase, then converted to fructose-6 phosphate that is used in the glycolysis. However, 90% of the mannose taken into the body is excreted unchanged into urine within 30-60 min, and 99% of the remaining mannose is excreted within 8 hr.

SMILES	binding of fucose to cells (PANC-1)	binding of 14C-fucose in competition with non-labeled fucose (AsPC-1; 4° C. for 1, 3, or 24 hr)	binding of fucose to cells (AsPC-1; 14C-fucose 0-200 nM, 4° C., 1 hr)	affinity of fucose binding (AsPC-1; AsPC-1 compared with PANC-1)	mannose taken into the body excreted unchanged into urine ([1]; within 30-60 min)	remaining mannose excreted ([1]; within 8 hr)	adverse effect ([2]; 1 mg of mannose for a mouse)	adverse effects (as shown in Table 5) ([2]; treatment period)	impact on the transfection efficiency of fucosylated liposomes (AsPC-1 cells)
C[C@H](O)[C@@H](O)[C@@H](O)[C@H](O)C=O [fucose, L-fucose]	binds to AsPC-1 and PANC-1 via a receptor-like mechanism	inhibited by non-labeled fucose	binds to AsPC-1 and PANC-1 via a receptor-like mechanism	affinity is higher in the fucosylated sugar chain high-producing cell line AsPC-1	–	–	–	–	–
O=C[C@@H](O)[C@@H](O)[C@H](O)[C@H](O)CO [mannose, D-mannose]	–	–	–	–	90%	99%	no apparent adverse effect was observed	does not have any adverse effects	no apparent impact was observed
